# Data taken from patent US9868767B2, “Chemical synthesis and screening of bicyclic peptide libraries” (OHIO STATE INNOVATION FOUNDATION, priority 2013, dated 2018).
# pEC50, pIC50, pKd: −log10 of the molar value. Entries after “also recorded” stand apart in the source; their conditions may differ. Where two headings read alike, the source gives them in different places. Bridges are numbered along the chain shown (N, C = ends). Primed or numbered codes have the meaning given here. Where no end group is shown, it is not given here. [ ]: non-standard residue; d: D form. trimesoyl″ = trimesic acid scaffold joined by three amide bonds; Nal = naphthylalanine (isomer not specified); pY = N[C@@H](Cc1ccc(OP(=O)(O)O)cc1)C(=O)O; Phg = N[C@H](C(=O)O)c1ccccc1; Pra = C#CC[C@H](N)C(=O)O; dNal = D-naphthylalanine; Dap = NC[C@H](N)C(=O)O
# What was measured:
# Ras-Raf interaction = Ras-Raf interaction (Homo sapiens, UniProt P01116); experiment: Qualitative on-bead assay of Ras-Raf interaction; format: binding; conditions: 10 μM peptide, Texas red-labeled K-Ras, immobilized GST-Raf
# K-Ras [1] = target: K-Ras (Homo sapiens, UniProt P01116); experiment: FA-based competition assay for binding to K-Ras
# [2] = target: GST-FKBP12 fusion protein (Homo sapiens, UniProt P62942); experiment: FA binding to GST-FKBP12
# Ras-GTP = Ras-GTP (Homo sapiens, UniProt P01116); experiment: FA binding to K-Ras loaded with GTP
# WEHI-13VAR fibroblasts [3] = system: WEHI-13VAR fibroblasts
# WEHI-13VAR fibroblasts [4] = conditions: in the presence of actinomycin-D; Khabar et al.; cited from earlier work
# human TNFα = target: T1, human TNFα (Homo sapiens, UniProt P01375); experiment: Fluorescence anisotropy (FA) binding to TNFα; conditions: resynthesized, FITC-labeled, HPLC-purified peptide
# T1 construct: extracellular domain of human TNFα (aa 77-233); made in house; host or cells: E. coli BL21(DE3)
# TNFα-TNFR1 interaction = target: T2, TNFα-TNFR1 interaction (Homo sapiens, UniProt P01375); experiment: TNFα-TNFR1 interaction ELISA (HRP-TNFR1, immobilized TNFα); conditions: read-out: IC50, inhibition of TNF-alpha binding to its cognate receptor
# T2 construct: extracellular domain of human TNFα (aa 77-233); host or cells: E. coli BL21(DE3) (TNFα)
# Experimental: Recombinant TNFR1 was purchased from R&D Systems. EZ-Link Plus activated peroxidase, an amine-reactive form of HRP was purchased from Thermo Scientific. TNFR1 was labeled with HRP by combining 50 μL of TNFR1 (1.0 μM) and 4 μL of HRP […], of Na2CO3 buffer (0.2 M Na2CO3, 0.15 M NaCl, pH 9.0) for 1 h. The resulting TNFR1-HRP conjugate was treated with NaCNBH3 to reduce the resulting Schiff base and quenched with 20 μl of ethanolamine. A Nunc 96F Maxisorp plate was coated overnight with 100 μL of […] Neutravidin (in 50 mM Na2CO3, pH 9.0) at 4° C. The solution was removed and each well was washed with 100 μL of the blocking buffer containing 3% BSA. […] The absorbance at 450 nm was measured and plotted against the peptide concentration and the IC50 value was obtained by curve fitting.
# TNFα signaling begins with the binding of the TNFα trimer to the extracellular domain of TNFR1, triggering the release of the inhibitory protein, silencer of death domains (SODD), from the intracellular domain of TNFR1 (Chen, G and Goeddel, D V. Science, 2002, 296, 1634-1635). […] After washing, the amount of HRP-TNFR1 bound to each well was quantitated by ELISA using 3,3′,5,5′-tetramethylbenzidine (TMB) as HRP substrate, which was converted into 3,3′,5,5′-tetramethylbenzidine diimine by HRP resulting in absorbance at 450 nm (Martin, T L et al. J. Histochem. Cytochem., 1984, 32, 793).
# H358 lung cancer cells = experiment: MTT assay, growth of H358 cells; format: cell-based
# Experimental: FIG. 23a, b show on-bead assay of inhibition of Ras-Raf interaction by cyclorasin B3.
# Cyclorasin B2-B4 were tested for inhibition of cell proliferation by the MTT assay.
# H1299 lung cancer cells = experiment: MTT proliferation assay; format: cell-based
# Experimental: One hundred μL of H1299 cells (0.5×10^5 cells/mL) were placed in each well of a 96-well culture plate and allowed to grow overnight. […] Ten μL of a MTT stock solution (5 mg/ml) was added into each well. The plate was incubated at 37° C. for 4 h. Then 100 μL of SDS-HCl solubilizing buffer was added into each well, and the resulting solution was mixed thoroughly. The plate was incubated at 37° C. overnight. The absorbance of the formazan product was measured at 570 nm using a Molecular Devices Spectramax M5 plate reader. Cells treated with DMSO were used as control.
# K-Ras [5] = target: T3, K-Ras (Homo sapiens, UniProt P01116, G12V); experiment: Competition between labeled peptide 2 and DCAI for K-Ras; format: binding
# T3 construct: GST; made in house
# K-Ras [6] = target: T3, K-Ras; experiment: FA binding to K-Ras (Example 4 DCAI-bearing bicyclic peptides); conditions: FAM- or FITC-labeled peptide; NB = no binding
# Description: To confirm the screening results, four hit sequences (peptides A2, A8, B5 and B8; hereafter named as peptides 1-4) were selected for resynthesis and tested for binding to K-Ras in solution by fluorescence anisotropy. The peptides were synthesized on Rink Amide resin, cleaved, deprotected, and purified by reversed-phase HPLC. Each peptide contains a Lys outside of the bicyclic rings to serve as the point of labeling with an amine-reactive fluorescent dye (FAM-NHS or FITC).
compound,measurement,setting,value
Orn-Arg-nal-Arg-Fpa-Lys-phe-glu-Gly-Dap [Hit 105B],effect on Ras-Raf interaction (bead staining),Ras-Raf interaction,completely abolished
same,inhibition of binding of (FITC-labeled) cyclorasin B4 to K-Ras,K-Ras [1],inhibited the binding of FITC-labeled B4 to K-Ras
nal-Ser-Gln-nal-Phg-Lys-phe-Arg-val-Arg-Dap [Hit 82],effect on Ras-Raf interaction (bead staining),Ras-Raf interaction; listed as cyclorasin B3,completely abolished; also recorded: abolished Ras-Raf interaction
same,binding to GST-FKBP12,[2],very weakly
same,fold higher affinity for Ras-GTP and Ras-GPPNP than Ras-GDP,Ras-GTP,approximately 8 fold
"TNFα: Tumor necrosis factor-alpha, cytokine used to induce cell death",LD50 of TNFα in the absence of TNFα inhibitor,WEHI-13VAR fibroblasts [3]; TNFα 0-250 ng/mL,0.46 ng/mL
same,LD50 range of TNFα,WEHI-13VAR fibroblasts [4],0.005 to 0.065 ng/mL
bicyclo(Phg-Tyr-D-Ala-Lys-Tyr-D-Phe-Gly-D-Lys-His-Dap) [Necrostatin C1],pKd,human TNFα,6.35
same,pIC50,TNFα-TNFR1 interaction,5.51
same,LD50 of TNFα in the presence of 50 μM Necrostatin C1,WEHI-13VAR fibroblasts [3]; TNFα 0-250 ng/mL,1.8 ng/mL
"Bicyclo(Arg-Arg-Arg-Arg-Nal-Phe-Dap-S er-D-Val-Pro-pTyr-His-Dap) (RRRR[Nal]F[Dap]S[dV]P[pY]H[Dap]; linker N-7-13 via trimesic acid (inferred)) [control bicyclic peptide, reference compound]",KD for TNFα,human TNFα,no detectable binding
same,protection of cells from TNFα-induced cell death,"WEHI-13VAR fibroblasts [3]; TNFα 0.04 ng/mL, peptide 0-25 μM, actinomycin D",no protective effect
CCCCCCCC/C=C\CCCCCCCC(=O)NCCCC[C@H](NC(=O)[C@@H]1CNC(=O)c2cc3cc(c2)C(=O)NC(Cc2ccc4ccccc4c2)C(=O)N[C@@H](CO)C(=O)N[C@@H](CCC(N)=O)C(=O)NC(Cc2ccc4ccccc4c2)C(=O)N[C@@H](c2ccccc2)C(=O)N[C@@H](CCCCNC3=O)C(=O)N[C@H](Cc2ccccc2)C(=O)N[C@@H](CCCNC(=N)N)C(=O)N[C@H](C(C)C)C(=O)NC(CCCNC(=N)N)C(=O)N1)C(N)=O (some centres unmarked) [oleiylated cyclorasin B3],anti-proliferative activity against H358 lung cancer cells,H358 lung cancer cells,modest anti-proliferative activity
bicyclo(Ala-d-Leu-Phe-Arg-d-Asn-Pra-Ile-Asp-K-FNalR4-Dap)-K [Peptide 41],pEC50,"H1299 lung cancer cells; 24-hour treatment, peptide 0-40 μM, read-out: ED50, anti-proliferative activity",~5.05
same,pEC50,"H1299 lung cancer cells; 72 h, read-out: ED50, cell growth inhibition",~5.15
"Cc1[nH]c2cc(Cl)cc(Cl)c2c1CCN [DCAI, 4,6-dichloro-2-methyl-3-aminoethyl-indole]",pIC50,K-Ras [5],2.85
bicyclo(Arg-Asp-Phg-Pra-d-Asn-K-FNalR4-Dap)-K (RD[Phg][Pra][dN]KF[dNal]RRRR[Dap]K-NH2; linker N-6-13 via trimesoyl″ (inferred); not fully specified; printed as bicyclo(Arg-Asp-Phg-Pra-d-Asn-K-FNalR4-Dap)-K) [Peptide 1],KD for K-Ras,K-Ras [6],does not bind
